Test results as given in PubChem BioAssay AID330 (DTP/NCI, 2004).
“And” between values parts separate entries of the source, which are not always exact repeats. Equal entries are not always repeated. Inconclusive results and toxic doses are left out.

Test system: P388 leukemia ip, CD2F1 mice, survival T/C
Test: NCI In Vivo Anticancer Drug Screen. Data for tumor model P388 Leukemia (intraperitoneal) in CD2F1 (CDF1) mice
Conditions: endpoint: median survival time, higher = longer survival
Method in brief: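 Mice carrying the transplanted tumor received test compound or vehicle. Survival was recorded in each group, and the value is the treated-group measurement divided by that of the vehicle-treated control group.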

[1] = dose: 50.0 mg/kg/injection, schedule: Q01DX009 (ip), vehicle: Klucel (hydroxypropylcellulose) (HPC)
[2] = dose: 100.0 mg/kg/injection, schedule: Q01DX009 (ip), vehicle: Klucel (hydroxypropylcellulose) (HPC)
[3] = dose: 200.0 mg/kg/injection, schedule: Q01DX009 (ip), vehicle: Klucel (hydroxypropylcellulose) (HPC)
[4] = dose: 2.5 mg/kg/injection, schedule: Q01DX009 (ip), vehicle: saline with Tween-80
[5] = dose: 5.0 mg/kg/injection, schedule: Q01DX009 (ip), vehicle: saline with Tween-80
[6] = dose: 50.0 mg/kg/injection, schedule: Q04DX003 (ip), vehicle: saline with Tween-80
[7] = dose: 12.5 mg/kg/injection, schedule: Q04DX003 (ip), vehicle: saline with Tween-80
[8] = dose: 50.0 mg/kg/injection, schedule: Q01DX005 (ip), vehicle: saline with Tween-80
[9] = dose: 100.0 mg/kg/injection, schedule: Q01DX005 (ip), vehicle: saline with Tween-80
[10] = dose: 200.0 mg/kg/injection, schedule: Q01DX005 (ip), vehicle: saline with Tween-80
[11] = dose: 60.0 mg/kg/injection, schedule: Q01DX005 (ip), vehicle: saline
[12] = dose: 120.0 mg/kg/injection, schedule: Q01DX005 (ip), vehicle: saline

With `Cc1ccc(C(C)C)c(OC(=O)Nc2ccc(Cl)cc2)c1` the T/C [1] was 100 % of control, the T/C [2] was 87 % of control and the T/C [3] was 95 % of control. For the same compound, the T/C (dose: 400.0 mg/kg/injection, schedule: Q01DX009 (ip), vehicle: Klucel (hydroxypropylcellulose) (HPC)) was 92 % of control.
In the case of `CC(=O)OC(CC(=O)CC(O)(C(F)(F)F)C(F)(F)F)(C(F)(F)F)C(F)(F)F`, the T/C (dose: 6.25 mg/kg/injection, schedule: Q04DX003 (ip), vehicle: saline) was 104 % of control and the T/C (dose: 12.5 mg/kg/injection, schedule: Q04DX003 (ip), vehicle: saline) was 90 % of control.
With `COc1cc(C=Nc2ccc(Cl)cc2)ccc1N(CCCl)CCCl` the T/C (dose: 0.44 mg/kg/injection, schedule: Q01DX009 (ip), vehicle: saline with Tween-80) was 100 % of control, the T/C (dose: 0.66 mg/kg/injection, schedule: Q01DX009 (ip), vehicle: saline with Tween-80) was 100 % of control and the T/C (dose: 1.0 mg/kg/injection, schedule: Q01DX009 (ip), vehicle: saline with Tween-80) was 109 % of control. For the same compound, the T/C [4] was 95 % of control, the T/C [5] was 157 % of control and the T/C [6] was 204 % of control.
`Cc1c(CNc2ccc(C(=O)NC(CC(=O)O)C(=O)O)cc2)ccc2nc(N)nc(N)c12` (stereo unspecified) was tested, and the T/C [7] was 159 % of control and the T/C (dose: 16.5 mg/kg/injection, schedule: Q04DX003 (ip), vehicle: saline with Tween-80) was 200 % of control.
In the case of `CCC1CCCCN1C(=S)N/N=C(\C)c1ccccn1` (stereo unspecified), the T/C [7] was 106 % of control, the T/C (dose: 25.0 mg/kg/injection, schedule: Q04DX003 (ip), vehicle: saline with Tween-80) was 108 % of control and 115 % of control and the T/C [6] was 115 % of control.
With `Cc1oc2c(c(=O)c1C)CN(Cc1ccccc1)CC2` the T/C (dose: 100.0 mg/kg/injection, schedule: Q01DX001 (ip), vehicle: saline with Tween-80) was 100 % of control, the T/C (dose: 200.0 mg/kg/injection, schedule: Q01DX001 (ip), vehicle: saline with Tween-80) was 100 % of control and the T/C (dose: 400.0 mg/kg/injection, schedule: Q01DX001 (ip), vehicle: saline with Tween-80) was 99 % of control.
`O=C(O)C(=O)O.O=C(O)C(=O)O.O=C(O)C(=O)O.[Rh]` was tested, and the T/C (dose: 200.0 mg/kg/injection, schedule: Q04DX003 (ip), vehicle: water) was 95 % of control.
For `CC1CN=C(c2ccc(NC(=O)c3ccc(C(=O)Nc4ccc(C5=NCC(C)N5)cc4)c(N)c3)cc2)N1` (stereo unspecified), the T/C (dose: 0.5 mg/kg/injection, schedule: Q04DX003 (ip), vehicle: saline) was 100 % of control, the T/C (dose: 1.0 mg/kg/injection, schedule: Q04DX003 (ip), vehicle: saline) was 110 % of control and the T/C (dose: 2.0 mg/kg/injection, schedule: Q04DX003 (ip), vehicle: saline) was 120 % of control. For the same compound, the T/C [4] was 195 % of control, the T/C [5] was 255 % of control and the T/C (dose: 10.0 mg/kg/injection, schedule: Q01DX009 (ip), vehicle: saline with Tween-80) was 170 % of control. For the same compound, the T/C (dose: 10.0 mg/kg/injection, schedule: Q04DX003 (ip), vehicle: saline with Tween-80) was 159 % of control.
For `CN(C)CCNc1ccc(CO)c2sc3ccc(O)cc3c(=O)c12`, the T/C (dose: 25.0 mg/kg/injection, schedule: Q01DX005 (ip), vehicle: saline with Tween-80) was 160 % of control and 162 % of control, the T/C [8] was 173 % of control and 175 % of control and the T/C [9] was 190 % of control and 194 % of control. The T/C [10] was 222 % of control.
For `O=C1c2ccccc2NC2(C(=O)Nc3ccccc32)N1N1CCOCC1` (stereo unspecified), the T/C (dose: 12.5 mg/kg/injection, schedule: Q01DX005 (ip), vehicle: Klucel (hydroxypropylcellulose) (HPC)) was 100 % of control, the T/C (dose: 25.0 mg/kg/injection, schedule: Q01DX005 (ip), vehicle: Klucel (hydroxypropylcellulose) (HPC)) was 100 % of control and the T/C (dose: 50.0 mg/kg/injection, schedule: Q01DX005 (ip), vehicle: Klucel (hydroxypropylcellulose) (HPC)) was 101 % of control.
In the case of `CC(C)CNC(=O)c1ccccc1C(=O)NC1(C(=O)NCC(C)C)CCCC1`, the T/C [8] was 87 % of control, the T/C [9] was 86 % of control and the T/C [10] was 94 % of control.
For `COc1ccc(/C=N/N2CN(C(C)C(=O)O)C(O)(CCl)N=C2N)cc1OC` (stereo unspecified), the T/C [11] was 108 % of control and the T/C [12] was 114 % of control.
`CCCCC(SC(CC)(C(C)=O)c1ccccc1)C(N)=O` (stereo unspecified) was tested, and the T/C (dose: 50.0 mg/kg/injection, schedule: Q01DX009 (ip), vehicle: saline with Tween-80) was 91 % of control, the T/C (dose: 100.0 mg/kg/injection, schedule: Q01DX009 (ip), vehicle: saline with Tween-80) was 90 % of control and the T/C (dose: 200.0 mg/kg/injection, schedule: Q01DX009 (ip), vehicle: saline with Tween-80) was 88 % of control. For the same compound, the T/C (dose: 400.0 mg/kg/injection, schedule: Q01DX009 (ip), vehicle: saline with Tween-80) was 90 % of control.
`CC1(C)C=CC(=O)C=C1C#N` was tested, and the T/C (dose: 100.0 mg/kg/injection, schedule: Q01DX001 (ip), vehicle: Klucel (hydroxypropylcellulose) (HPC)) was 92 % of control, the T/C (dose: 200.0 mg/kg/injection, schedule: Q01DX001 (ip), vehicle: Klucel (hydroxypropylcellulose) (HPC)) was 104 % of control and the T/C (dose: 400.0 mg/kg/injection, schedule: Q01DX001 (ip), vehicle: Klucel (hydroxypropylcellulose) (HPC)) was 106 % of control.
With `c1cnc(NC(Nc2ncccn2)C2CCCCC2)nc1` the T/C (dose: 60.0 mg/kg/injection, schedule: Q01DX005 (ip), vehicle: Klucel (hydroxypropylcellulose) (HPC)) was 100 % of control, the T/C (dose: 120.0 mg/kg/injection, schedule: Q01DX005 (ip), vehicle: Klucel (hydroxypropylcellulose) (HPC)) was 100 % of control and the T/C (dose: 240.0 mg/kg/injection, schedule: Q01DX005 (ip), vehicle: Klucel (hydroxypropylcellulose) (HPC)) was 94 % of control.
In the case of `Cc1nsnc1CCO`, the T/C (dose: 100.0 mg/kg/injection, schedule: Q04DX002 (ip), vehicle: saline) was 102 % of control, the T/C (dose: 200.0 mg/kg/injection, schedule: Q04DX002 (ip), vehicle: saline) was 104 % of control and the T/C (dose: 400.0 mg/kg/injection, schedule: Q04DX002 (ip), vehicle: saline) was 99 % of control.
`CNC(=O)OCc1c(COC(=O)NC)c2n(c1C)-c1ccccc1CCC2` was tested, and the T/C (dose: 2.5 mg/kg/injection, schedule: Q01DX005 (ip), vehicle: Klucel (hydroxypropylcellulose) (HPC)) was 154 % of control and the T/C (dose: 10.0 mg/kg/injection, schedule: Q01DX005 (ip), vehicle: Klucel (hydroxypropylcellulose) (HPC)) was 152 % of control.
`Oc1ccc2c(c1)Cc1cc3ccccc3nc1-2` was tested, and the T/C (dose: 25.0 mg/kg/injection, schedule: Q01DX009 (ip), vehicle: Klucel (hydroxypropylcellulose) (HPC)) was 101 % of control, the T/C [1] was 98 % of control and the T/C [2] was 94 % of control. For the same compound, the T/C [3] was 103 % of control.
For `CNNC(=O)OC`, the T/C (dose: 25.0 mg/kg/injection, schedule: Q01DX002 (ip), vehicle: saline) was 101 % of control, the T/C (dose: 50.0 mg/kg/injection, schedule: Q01DX002 (ip), vehicle: saline) was 102 % of control and the T/C (dose: 100.0 mg/kg/injection, schedule: Q01DX002 (ip), vehicle: saline) was 120 % of control.
`CC(=O)SCC(C)CCl` (stereo unspecified) was tested, and the T/C (dose: 100.0 mg/kg/injection, schedule: Q04DX003 (ip), vehicle: saline with Tween-80) was 100 % of control and the T/C (dose: 200.0 mg/kg/injection, schedule: Q04DX003 (ip), vehicle: saline with Tween-80) was 109 % of control.
`CC(C)=CCC(OC(=O)C=C(C)C)c1cc(O)c2c(O)ccc(O)c2c1O.[Fe]` (stereo unspecified) was tested, and the T/C (dose: 100.0 mg/kg/injection, schedule: Q04DX002 (ip), vehicle: saline with Tween-80) was 92 % of control, the T/C (dose: 200.0 mg/kg/injection, schedule: Q04DX002 (ip), vehicle: saline with Tween-80) was 92 % of control and the T/C (dose: 400.0 mg/kg/injection, schedule: Q04DX002 (ip), vehicle: saline with Tween-80) was 93 % of control.
`Oc1cc(O)cc(/C=C/c2ccc(O)cc2O)c1` was tested, and the T/C (dose: 2.0 mg/kg/injection, schedule: Q01DX009 (ip), vehicle: Klucel (hydroxypropylcellulose) (HPC)) was 102 % of control, the T/C (dose: 4.0 mg/kg/injection, schedule: Q01DX009 (ip), vehicle: Klucel (hydroxypropylcellulose) (HPC)) was 105 % of control and the T/C (dose: 8.0 mg/kg/injection, schedule: Q01DX009 (ip), vehicle: Klucel (hydroxypropylcellulose) (HPC)) was 101 % of control. The T/C (dose: 16.0 mg/kg/injection, schedule: Q01DX009 (ip), vehicle: Klucel (hydroxypropylcellulose) (HPC)) was 94 % of control and the T/C (dose: 32.0 mg/kg/injection, schedule: Q01DX009 (ip), vehicle: Klucel (hydroxypropylcellulose) (HPC)) was 101 % of control.
With `C/C=C/C1OC(OC)(OC)C1(OC)OC` (stereo unspecified) the T/C [11] was 100 % of control, the T/C [12] was 100 % of control and the T/C (dose: 240.0 mg/kg/injection, schedule: Q01DX005 (ip), vehicle: saline) was 100 % of control.
`O=Cc1ccc(COCCO)o1` was tested, and the T/C (dose: 60.0 mg/kg/injection, schedule: Q01DX005 (ip), vehicle: saline with Tween-80) was 105 % of control, the T/C (dose: 120.0 mg/kg/injection, schedule: Q01DX005 (ip), vehicle: saline with Tween-80) was 102 % of control and the T/C (dose: 240.0 mg/kg/injection, schedule: Q01DX005 (ip), vehicle: saline with Tween-80) was 102 % of control.
For `NC(=S)N/N=C\C(CC(O)CO)=N\NC(N)=S` (stereo unspecified), the T/C [8] was 101 % of control, the T/C [9] was 101 % of control and the T/C [10] was 93 % of control.
